What was measured:
[1] = biological target: T1, His tagged PTPN2 (TC45) protein (Homo sapiens, UniProt P17706); assay: Mobility shift assay (MSA) to determine potency of PTPN2 inhibitors; assay type: biochemical; details: 0.5 nM enzyme, 2 μM substrate
T1 construct: made in house
T1 sequence (P17706 with tags, fused parts or gaps isoform P17706-2): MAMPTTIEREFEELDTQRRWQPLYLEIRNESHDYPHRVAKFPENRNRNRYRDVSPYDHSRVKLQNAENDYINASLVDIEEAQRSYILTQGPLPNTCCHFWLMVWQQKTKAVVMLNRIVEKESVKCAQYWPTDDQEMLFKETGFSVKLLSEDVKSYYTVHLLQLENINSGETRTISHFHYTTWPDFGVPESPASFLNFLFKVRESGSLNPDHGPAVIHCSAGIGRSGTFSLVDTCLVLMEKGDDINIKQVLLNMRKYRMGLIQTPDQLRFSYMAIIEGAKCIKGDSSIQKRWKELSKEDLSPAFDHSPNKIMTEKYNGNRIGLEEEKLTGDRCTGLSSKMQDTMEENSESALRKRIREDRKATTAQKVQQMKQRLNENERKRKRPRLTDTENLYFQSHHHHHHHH
Procedure: Compound activity was determined using in house His tagged PTPN2 (TC45) protein (SEQ ID NO: 1) in an in vitro enzymatic reaction. The enzymatic assay used to determine activity was a mobility shift assay using a LabChip EZ Reader by Caliper Life Sciences. The enzymatic reaction was carried out in assay buffer (50 mM HEPES pH 7.5, 1 mM EGTA, 10 mM EDTA, 0.01% Tween® 20, and 2 mM DTT). The compounds were dispensed on a white 384 well ProxiPlate™ (PerkinElmer Catalog #6008289) plate using the Labcyte Echo at varying concentrations (12 point, 1:3 dilution). The enzyme (at 0.5 nM) was incubated with compound for 10 minutes at room temperature. Then the substrate (phosphorylated insulin receptor probe sequence: ((OG488)-(NH—CH2—CH2—O—CH2—CH2—O—CH2—CO)-T-R-D-I-(PY)-E-T-D-Y—Y—R—K—K—NH2) (SEQ ID NO: 2) was added at 2 μM to the plates and incubated for another 10 minutes at room temperature. Finally, a quench solution (water and 4-bromo-3-(2-oxo-2-propoxyethoxy)-5-(3-{[1-(phenylmethanesulfonyl)piperidin-4-yl]amino}phenyl)thiophene-2-carboxylic acid) was added to the plates, which were then run on the EZ Reader (excitation 488 nm, emission 530 nm) to measure % conversion (the amount of phosphorylated substrate which was de-phosphorylated by PTPN2). […] The % inhibition was then used to calculate the IC50 values.

[2] = biological target: T2, His tagged full-length PTPN1 protein (Homo sapiens, UniProt P18031); assay: Mobility shift assay (MSA) to determine potency of PTPN1 inhibitors; assay type: biochemical; details: 0.5 nM enzyme, 2 μM substrate
T2 construct: made in house
T2 sequence (P18031 with tags, fused parts or gaps): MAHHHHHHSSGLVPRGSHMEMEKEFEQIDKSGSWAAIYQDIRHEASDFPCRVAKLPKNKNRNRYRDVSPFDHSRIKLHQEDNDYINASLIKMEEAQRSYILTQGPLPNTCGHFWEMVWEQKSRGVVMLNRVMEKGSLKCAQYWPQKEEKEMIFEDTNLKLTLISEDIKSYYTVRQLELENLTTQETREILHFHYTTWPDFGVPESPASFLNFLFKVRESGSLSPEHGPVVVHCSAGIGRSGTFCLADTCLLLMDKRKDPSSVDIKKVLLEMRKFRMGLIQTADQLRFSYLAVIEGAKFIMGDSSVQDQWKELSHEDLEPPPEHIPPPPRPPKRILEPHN
Procedure: Compound activity was determined using in house His tagged full-length PTPN1 protein (SEQ ID NO: 3) in an in vitro enzymatic reaction. The enzymatic assay used to determine activity is a mobility shift assay using a LabChip EZ Reader by Caliper Life Sciences. The enzymatic reaction was carried out in assay buffer (50 mM HEPES pH 7.5, 1 mM EGTA, 10 mM EDTA. 0.01% Tween® 20, and 2 mM DTT). The compounds were dispensed on a white 384 well ProxiPlate™ (PerkinElmer Cat #6008289) plate using a Labcyte Echo® liquid handler at varying concentrations (12 point, 1:3 dilution). The enzyme (at 0.5 nM) was incubated with compound for 10 minutes at room temperature. Then the substrate (phosphorylated insulin receptor probe sequence: ((OG488)-(NH—CH2—CH2—O—CH2—CH2—O—CH2—CO)-T-R-D-I-(PY)-E-T-D-Y—Y—R—K—K—NH2) (SEQ ID NO: 2) was added at 2 μM to the plates and incubated for another 10 minutes at room temperature. Finally, a quench solution (water and 4-bromo-3-(2-oxo-2-propoxyethoxy)-5-(3-{[1-(phenylmethanesulfonyl)piperidin-4-yl]amino}phenyl)thiophene-2-carboxylic acid) was added to the plates, which were then run on the EZ Reader (excitation 488 nm, emission 530 nm) to measure % conversion (the amount of phosphorylated substrate which was de-phosphorylated by PTPN1). […] The % inhibition was then used to calculate the IC50 values.

Structure (SMILES) | IC50 [2] | IC50 [1]
Cc1nn(CC(F)F)c(C)c1CCN1Cc2c(cc(O)c(N3CC(=O)NS3(=O)=O)c2F)C(F)(F)C1 [Compound 226] | 10 to 100 nM | 10 to 100 nM
Cc1nn(CCCC(C)(C)C#N)c(C)c1CN1CCc2cc(O)c(N3CC(=O)NS3(=O)=O)c(F)c2C1 [Compound 227] | > 100 nM | > 100 nM
O=C1CN(c2c(O)cc3c(c2F)CN(CC2CCNCC2)CC3)S(=O)(=O)N1 [Compound 228] | 10 to 100 nM | > 100 nM
O=C1CN(c2c(O)cc3c(c2F)CN(CCCN2CCOCC2)CC3)S(=O)(=O)N1 [Compound 229] | 10 to 100 nM | 10 to 100 nM
O=C1CN(c2c(O)cc3c(c2F)CN(CCC2CCNCC2)CC3)S(=O)(=O)N1 [Compound 230] | 10 to 100 nM | > 100 nM
O=C1CN(c2c(O)cc3c(c2F)CN(CC[C@H]2C[C@@H](OC(F)(F)F)C2)CC3)S(=O)(=O)N1 [Compound 231] | 1 to 10 nM | 10 to 100 nM
CN1CCN(CCCN2CCc3cc(O)c(N4CC(=O)NS4(=O)=O)c(F)c3C2)CC1 [Compound 232] | 10 to 100 nM | > 100 nM
Cc1nn(C)c(C)c1CN1CCC(N2CCc3cc(O)c(N4CC(=O)NS4(=O)=O)c(F)c3C2)CC1 [Compound 236] | 10 to 100 nM | > 100 nM
Cc1nn(C)c(C)c1CN1CC2(CC(N3CCc4cc(O)c(N5CC(=O)NS5(=O)=O)c(F)c4C3)C2)C1 [Compound 237] | > 100 nM | > 100 nM
Cc1nn(C(F)F)c(C)c1CCN1CCc2cc(O)c(N3CC(=O)NS3(=O)=O)c(F)c2C1 [Compound 238] | 1 to 10 nM | 1 to 10 nM
O=C1CN(c2c(O)cc3c(c2F)CN(CCC2(C(F)(F)F)CC2)CC3)S(=O)(=O)N1 [Compound 243] | 1 to 10 nM | 1 to 10 nM
O=C1CN(c2c(O)cc3c(c2F)CN(CCN2CCNCC2)CC3)S(=O)(=O)N1 [Compound 247] | 10 to 100 nM | 10 to 100 nM
COC(CN1CCc2cc(O)c(N3CC(=O)NS3(=O)=O)c(F)c2C1)C1CCCC1 (stereo not drawn) [Compound 249] | 10 to 100 nM | 10 to 100 nM
Cn1cc(CCN2CCc3cc(O)c(N4CC(=O)NS4(=O)=O)c(F)c3C2)cn1 [Compound 252] | > 100 nM | > 100 nM
Cc1nn(CC(F)F)c(C)c1CCN1CCc2cc(O)c(N3CC(=O)NS3(=O)=O)c(F)c2C1 [Compound 253] | 1 to 10 nM | 1 to 10 nM
Cc1nn(C(C)C)c(C)c1CCN1CCc2cc(O)c(N3CC(=O)NS3(=O)=O)c(F)c2C1 [Compound 273] | 1 to 10 nM | 1 to 10 nM
CCn1nc(C)c(CCN2CCc3cc(O)c(N4CC(=O)NS4(=O)=O)c(F)c3C2)c1C [Compound 276] | 1 to 10 nM | < 1 nM
O=C1CN(c2c(O)cc3c(c2F)CN(CCCC2CCCCC2)CC3)S(=O)(=O)N1 [Compound 286] | 1 to 10 nM | 1 to 10 nM
C[C@H]1Cc2c(cc(O)c(N3CC(=O)NS3(=O)=O)c2F)CN1 [Compound 289] | > 100 nM | 10 to 100 nM
O=C1CN(c2c(O)cc3c(c2F)CN(CCCc2cccc(C(F)(F)F)c2)CC3)S(=O)(=O)N1 [Compound 294] | 10 to 100 nM | 10 to 100 nM
CC1(C)COC(CCCCN2CCc3cc(O)c(N4CC(=O)NS4(=O)=O)c(F)c3C2)OC1 [Compound 296] | > 100 nM | 10 to 100 nM

Now from value to compound, other results behind:

IC50 [2] | Structure (SMILES) | IC50 [1]
10 to 100 nM | CC(C)OCCN1CCc2cc(O)c(N3CC(=O)NS3(=O)=O)c(F)c2C1 [Compound 233] | > 100 nM
10 to 100 nM | O=C1CN(c2c(O)cc3c(c2F)CN(CCCO)CC3)S(=O)(=O)N1 [Compound 244] | 10 to 100 nM
10 to 100 nM | C[C@H](N)CN1CCc2cc(O)c(N3CC(=O)NS3(=O)=O)c(F)c2C1 [Compound 245] | 10 to 100 nM
10 to 100 nM | C[C@@H](N)CN1CCc2cc(O)c(N3CC(=O)NS3(=O)=O)c(F)c2C1 [Compound 246] | 10 to 100 nM
10 to 100 nM | N[C@H](CCC1CCCCC1)C(=O)N1CCc2cc(O)c(N3CC(=O)NS3(=O)=O)c(F)c2C1 [Compound 250] | 10 to 100 nM
10 to 100 nM | CC(C)OCCCN1CCc2cc(O)c(N3CC(=O)NS3(=O)=O)c(F)c2C1 [Compound 251] | 10 to 100 nM
1 to 10 nM | Cc1nn(C)cc1CCN1CCc2cc(O)c(N3CC(=O)NS3(=O)=O)c(F)c2C1 [Compound 256] | 1 to 10 nM
1 to 10 nM | Cc1c(CCN2CCc3cc(O)c(N4CC(=O)NS4(=O)=O)c(F)c3C2)cnn1C [Compound 257] | 1 to 10 nM
1 to 10 nM | O=C1CN(c2c(O)cc3c(c2F)CN(C(=O)NCC2CC2)CC3)S(=O)(=O)N1 [Compound 258] | 1 to 10 nM
10 to 100 nM | O=C1CN(c2c(O)cc3c(c2F)CN(C(=O)NCC2CCOCC2)CC3)S(=O)(=O)N1 [Compound 261] | 10 to 100 nM
1 to 10 nM | O=C1CN(c2c(O)cc3c(c2F)CN(C(=O)NCC2CC(F)(F)C2)CC3)S(=O)(=O)N1 [Compound 262] | 10 to 100 nM
10 to 100 nM | O=C1CN(c2c(O)cc3c(c2F)CN(C(=O)NCCC2CC2)CC3)S(=O)(=O)N1 [Compound 264] | 10 to 100 nM
1 to 10 nM | Cc1nn(C(C)(C)C)c(C)c1CCN1CCc2cc(O)c(N3CC(=O)NS3(=O)=O)c(F)c2C1 [Compound 266] | 1 to 10 nM
10 to 100 nM | Cc1c(CNC(=O)N2CCc3cc(O)c(N4CC(=O)NS4(=O)=O)c(F)c3C2)cnn1C [Compound 271] | 10 to 100 nM
10 to 100 nM | Cn1nccc1CNC(=O)N1CCc2cc(O)c(N3CC(=O)NS3(=O)=O)c(F)c2C1 [Compound 272] | 10 to 100 nM
10 to 100 nM | CC(C)(C)CNC(=O)N1CCc2cc(O)c(N3CC(=O)NS3(=O)=O)c(F)c2C1 [Compound 277] | 1 to 10 nM
10 to 100 nM | COCCCNC(=O)N1CCc2cc(O)c(N3CC(=O)NS3(=O)=O)c(F)c2C1 [Compound 278] | 10 to 100 nM
10 to 100 nM | COCC(C)(C)CNC(=O)N1CCc2cc(O)c(N3CC(=O)NS3(=O)=O)c(F)c2C1 [Compound 279] | 10 to 100 nM
> 100 nM | CN(C)CCNC(=O)N1CCc2cc(O)c(N3CC(=O)NS3(=O)=O)c(F)c2C1 [Compound 280] | > 100 nM
10 to 100 nM | CC1(CCNC(=O)N2CCc3cc(O)c(N4CC(=O)NS4(=O)=O)c(F)c3C2)CC1 [Compound 281] | 10 to 100 nM
10 to 100 nM | COCCNC(=O)N1CCc2cc(O)c(N3CC(=O)NS3(=O)=O)c(F)c2C1 [Compound 282] | 10 to 100 nM
> 100 nM | O=C1CN(c2c(O)cc3c(c2F)CN(C(=O)NCC2COC2)CC3)S(=O)(=O)N1 [Compound 283] | 10 to 100 nM
10 to 100 nM | O=C1CN(c2c(O)cc3c(c2F)CN(C(=O)NCCc2ccccc2)CC3)S(=O)(=O)N1 [Compound 284] | 10 to 100 nM
10 to 100 nM | COCCCCN1CCc2cc(O)c(N3CC(=O)NS3(=O)=O)c(F)c2C1 [Compound 293] | 10 to 100 nM

— patent US20250122160A1, “PROTEIN TYROSINE PHOSPHATASE INHIBITORS AND METHODS OF USE THEREOF” (Calico Life Sciences LLC, priority 0001, published 2025)
